Source: the supplement of paper PMC11451515

System: NOMO1
Assay: cell viability relative to DMSO control; higher = less cytotoxic
Details: 48 h
Outline: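 Leukemia cells (NOMO1 or SEM, 500 cells/well; P12-Ichikawa, 1000 cells/well) were seeded in 5 μl in 1536-well plates after at least four passages of adaptation to each medium. They received library compounds in DMSO by pin dosing, 11 threefold points from 47 μM to 0.79 nM. Luminescence with CellTiter-Glo One was read after 48 h at 37°C. Viability is stated per plate relative to DMSO wells, with cell-free wells as background.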

[1] = HPLM + 10% dialyzed FBS, 0.000781 µM
[2] = HPLM + 10% dialyzed FBS, 0.00234 µM
[3] = HPLM + 10% dialyzed FBS, 0.00702 µM
[4] = HPLM + 10% dialyzed FBS, 0.0211 µM
[5] = HPLM + 10% dialyzed FBS, 0.0632 µM
[6] = HPLM + 10% dialyzed FBS, 0.19 µM
[7] = HPLM + 10% dialyzed FBS, 0.569 µM
[8] = HPLM + 10% dialyzed FBS, 1.71 µM
[9] = HPLM + 10% dialyzed FBS, 5.12 µM
[10] = HPLM + 10% dialyzed FBS, 15.4 µM
[11] = HPLM + 10% dialyzed FBS, 46.1 µM
[12] = RPMI 5 mM glucose + 10% dialyzed FBS, 0.000781 µM
[13] = RPMI 5 mM glucose + 10% dialyzed FBS, 0.00234 µM
[14] = RPMI 5 mM glucose + 10% dialyzed FBS, 0.00702 µM
[15] = RPMI 5 mM glucose + 10% dialyzed FBS, 0.0211 µM
[16] = RPMI 5 mM glucose + 10% dialyzed FBS, 0.0632 µM
[17] = RPMI 5 mM glucose + 10% dialyzed FBS, 0.19 µM
[18] = RPMI 5 mM glucose + 10% dialyzed FBS, 0.569 µM
[19] = RPMI 5 mM glucose + 10% dialyzed FBS, 1.71 µM
[20] = RPMI 5 mM glucose + 10% dialyzed FBS, 5.12 µM
[21] = RPMI 5 mM glucose + 10% dialyzed FBS, 15.4 µM
[22] = RPMI 5 mM glucose + 10% dialyzed FBS, 46.1 µM
[23] = RPMI 5 mM glucose + 10% FBS, 0.000781 µM
[24] = RPMI 5 mM glucose + 10% FBS, 0.00234 µM
[25] = RPMI 5 mM glucose + 10% FBS, 0.00702 µM
[26] = RPMI 5 mM glucose + 10% FBS, 0.0211 µM
[27] = RPMI 5 mM glucose + 10% FBS, 0.0632 µM
[28] = RPMI 5 mM glucose + 10% FBS, 0.19 µM
[29] = RPMI 5 mM glucose + 10% FBS, 0.569 µM
[30] = RPMI 5 mM glucose + 10% FBS, 1.71 µM
[31] = RPMI 5 mM glucose + 10% FBS, 5.12 µM
[32] = RPMI 5 mM glucose + 10% FBS, 15.4 µM
[33] = RPMI 5 mM glucose + 10% FBS, 46.1 µM

Row | SMILES | cell viability [1] [%] | cell viability [2] [%] | cell viability [3] [%] | cell viability [4] [%] | cell viability [5] [%] | cell viability [6] [%] | cell viability [7] [%] | cell viability [8] [%] | cell viability [9] [%] | cell viability [10] [%] | cell viability [11] [%] | cell viability [12] [%] | cell viability [13] [%] | cell viability [14] [%] | cell viability [15] [%] | cell viability [16] [%] | cell viability [17] [%] | cell viability [18] [%] | cell viability [19] [%] | cell viability [20] [%] | cell viability [21] [%] | cell viability [22] [%] | cell viability [23] [%] | cell viability [24] [%] | cell viability [25] [%] | cell viability [26] [%] | cell viability [27] [%] | cell viability [28] [%] | cell viability [29] [%] | cell viability [30] [%] | cell viability [31] [%] | cell viability [32] [%] | cell viability [33] [%]
1 | COC(=O)Nc1nc2ccc([S+]([O-])c3ccccc3)cc2[nH]1 (centres undefined) | 96.8 | 106 | 119 | 110 | 101 | 119 | 121 | 113 | 101 | 97.9 | 66.7 | 113 | 123 | 120 | 131 | 136 | 137 | 123 | 134 | 130 | 116 | 94.8 | – | – | – | – | – | – | – | – | – | – | –
2 | CN(C)CCc1c[nH]c2ccc(C[S+](=O)([O-])N3CCCC3)cc12 | 95.2 | 118 | 104 | 109 | 118 | 113 | 102 | 125 | 107 | 96.2 | 60.2 | 99.5 | 95.8 | 113 | 103 | 106 | 109 | 115 | 102 | 106 | 92 | 58.8 | 96.7 | 107 | 97.1 | 104 | 123 | 97.1 | 99.3 | 98.5 | 96.4 | 97.6 | 72.2
3 | C=CC(=O)Nc1ccc2ncnc(Nc3ccc(OCc4cccc(F)c4)c(Cl)c3)c2c1 | 82.4 | 93.3 | 99.9 | 96.7 | 105 | 99.4 | 98.1 | 72.4 | 22.2 | 17.1 | 12.6 | 92.9 | 85.7 | 93.5 | 91.3 | 104 | 92.6 | 93 | 94 | 21.4 | 18.3 | 11.8 | 92.6 | 91.8 | 114 | 115 | 107 | 95.8 | 101 | 93.3 | 13.6 | 14.7 | 9.53
4 | Cc1cccc(-c2[nH]c(C(C)(C)C)nc2-c2ccc3c(c2)OCO3)n1 | 94.7 | 105 | 107 | 114 | 115 | 95.4 | 104 | 114 | 103 | 24 | 11.9 | 101 | 92.1 | 94.4 | 94.3 | 107 | 86.9 | 92.8 | 97.2 | 97.3 | 13.9 | 9.64 | 97.4 | 106 | 100 | 93.4 | 101 | 92.7 | 100 | 92.6 | 86.3 | 11.5 | 8.98
5 | OC[C@H]1OC(OC2=CC3=C(C(=C2)O)C(=O)\C(=C/O3)C4=CC=C(O)C=C4)[C@H](O)[C@@H](O)[C@@H]1O (some centres undefined) | 94 | 86.6 | 79.6 | 92.8 | 89.9 | 89.2 | 72 | 61.9 | 88.9 | 72 | 74.2 | 88.5 | 73.9 | 78.6 | 78.5 | 80.8 | 73.4 | 80.4 | 82.8 | 76.7 | 77.8 | 66.7 | 78.9 | 92.5 | 85.9 | 77.8 | 92 | 90.7 | 87.9 | 84.7 | 84.1 | 86.3 | 72
